Data set [1] relates to ST2 cells. The data set is described as follows: Osteoblast differentiation test (alkaline phosphatase activity). Conditions: Mus musculus, ST-2, 96 h; at 0.03 μg/mL; culturing for four days; control group (0.1% DMSO) = 100%; read-out: alkaline phosphatase activity increase rate. Format: cell-based. On the procedure: ST2 cells (available from Institute of Physical and Chemical Research) which are stroma cells derived from mouse marrow were used. In this test, α-MEM medium (available from GIBCO BRL Cat. No. 10370-021) with which 10% (v/v) inactivated fetal bovine serum (available from Hyclone Company, FBS) and 1% (v/v) Penicillin-Streptomycin, Liquid (available from GIBCO BRL Cat. No. 15140-122) are mixed (hereinbelow abbreviated as 10% -FBS-αMEM) was used. Every culture in this test was conducted in a CO2 incubator (37° C., 95% humidity, 5% CO2).
The cells mentioned above were harvested with 2 mL of 0.25% trypsin solution (available from GIBCO BRL Cat. No. 15050-065) and after they were dispersed by adding 10 mL of 10% -FBS-αMEM, the cells were collected by centrifugal separation (25° C., 800 rpm, 5 minutes). A cell suspension containing 40,000 cells/mL was prepared from the collected cells using 10% -FBS-αMEM.
The cell suspension was dispensed to the wells of a 96 well microplate (Falcon company) in an amount of 100 μL per well so as to achieve 4,000 cells/well and cultured for 24 hours. Compounds were dispensed to the wells in final concentrations of 0.01, 0.03, 0.1, 0.3 μg/ml except the following control group. DMSO was dispensed to the wells of the control group in a final concentration of 0.1% (v/v). Alkaline phosphatase (ALP) activity was measured for each group after culturing for four days.
The measurement of ALP activity was performed as follows. That is, after the whole medium was removed from each well of the culturing plate, each well was washed twice by dispensing and removing 100 μL of Dulbecco's phosphate buffer (available from GIBCO BRL Cat. No. 14190-144). Cell lysing solution containing 10 mM MgCl2 and 2%(v/v) TritonX-100 (Sigma company) was prepared and 50 μL/well of the cell lysing solution was dispensed and the mixture was stirred at room temperature for five minutes. An ALP substrate solution containing 50 mM of diethanolamine (Wako Pure Chemical Industries, Ltd. Cat. No. 099-03112) and 20 mM of […] (Wako Pure Chemical Industries, Ltd. Cat. No. 147-02343) was prepared and 50 μL/well of the ALP substrate solution was dispensed and after allowing to stand at room temperature for 10 minutes, absorbance was measured using a microplate reader (Bio-rad company). Alkaline phosphatase activity increase rate (%) in the group blended with test compounds was calculated assuming the observed value of the control group of each plate to be 100% and evaluated as the osteoblast differentiation promoting activity.

Molecules are shown by their SMILES. Some results are limits rather than exact numbers.

What is called melting point is the temperature of the solid-liquid transition.

Take `CN(C)c1ccc(N2CCCN(c3ccnc4sc(C(N)=O)c(N)c34)CC2)cc1` [Example 74, 3-amino-4-{4-[4-(dimethylamino)phenyl]-1,4-diazepan-1-yl}thieno[2,3-b]pyridine-2-carboxamide]: the melting point was in the range of 174 to 176 °C. Further, the activity at 0.03 µg/mL in data set [1] is more than 150%.

`CCc1ccc(N2CCCN(c3ccnc4sc(C(N)=O)c(N)c34)CC2)cc1` [Example 93, 3-amino-4-[4-(4-ethylphenyl)-1,4-diazepan-1-yl]thieno[2,3-b]pyridine-2-carboxamide] returned a melting point of 186 to 188 °C. Further, the activity at 0.03 µg/mL in data set [1] was more than 150%.

`NC(=O)c1sc2nccc(N3CCSCC3)c2c1N` [Example 24, 3-amino-4-thiomorpholin-4-ylthieno[2,3-b]pyridine-2-carboxamide] displayed a melting point of 255 to 258 °C. The activity at 0.03 µg/mL in data set [1] was more than 150%.

As to `COc1cccc(N2CCCN(c3ccnc4sc(C(N)=O)c(N)c34)CC2)c1` [Example 68, 3-amino-4-[4-(3-methoxyphenyl)-1,4-diazepan-1-yl]thieno[2,3-b]pyridine-2-carboxamide], the melting point is 193 to 195 °C. Besides, the activity at 0.03 µg/mL in data set [1] is more than 150%. The molecule `CC1CCCN(c2ccnc3sc(C(N)=O)c(N)c23)C1` (stereo not drawn) [Example 16, 3-amino-4-(3-methylpiperidin-1-yl)thieno[2,3-b]pyridine-2-carboxamide] returned a melting point of 201 to 204 °C. The activity at 0.03 µg/mL in data set [1] was more than 150%.

Regarding `NC(=O)c1sc2nccc(N3CCCN(c4ccc([N+](=O)[O-])cc4)CC3)c2c1N` [Example 59, 3-amino-4-[4-(4-nitrophenyl)-1,4-diazepan-1-yl]thieno[2,3-b]pyridine-2-carboxamide], the melting point is 244 to 248 °C. Also, the activity at 0.03 µg/mL in data set [1] is more than 150%. Turning to `NC(=O)c1sc2nccc(N3CC[C@@H]4CCCC[C@@H]4C3)c2c1N` (relative stereo) [Example 29, 3-amino-4-(cis-perhydroisoquinolin-2-yl)thieno[2,3-b]pyridine-2-carboxamide], the melting point lay within 224 to 226 °C. The activity at 0.03 µg/mL in data set [1] was more than 150%. The matching figures for `COc1ccc(N2CCCN(c3ccnc4sc(C(N)=O)c(N)c34)CC2)cc1` [Example 58, 3-amino-4-[4-(4-methoxyphenyl)-1,4-diazepan-1-yl]thieno[2,3-b]pyridine-2-carboxamide]: 206 to 208 °C and more than 150%. For `Cc1ccc(N2CCCN(c3ccnc4sc(C(N)=O)c(N)c34)CC2)cc1C` [Example 84, 3-amino-4-[4-(3,4-dimethylphenyl)-1,4-diazepan-1-yl]thieno[2,3-b]pyridine-2-carboxamide], the melting point was 195 to 197 °C. Also, the activity at 0.03 µg/mL in data set [1] is more than 150%. The molecule `COc1ccc(N2CCCN(c3ccnc4sc(C(N)=O)c(N)c34)CC2)cn1` [Example 98, 3-amino-4-[4-(6-methoxypyridin-3-yl)-1,4-diazepan-1-yl]thieno[2,3-b]pyridine-2-carboxamide] returned a melting point of 170 to 172 °C. For the same molecule, the activity at 0.03 µg/mL in data set [1] was more than 150%. For `NC(=O)c1sc2nccc(N3CCCN(c4cccnc4)CC3)c2c1N` [Example 96, 3-amino-4-(4-pyridin-3-yl-1,4-diazepan-1-yl)thieno[2,3-b]pyridine-2-carboxamide], the activity at 0.03 µg/mL in data set [1] was more than 150%. With `CSc1ccc(N2CCCN(c3ccnc4sc(C(N)=O)c(N)c34)CC2)cc1` [Example 64, 3-amino-4-{4-[4-(methylthio)phenyl]-1,4-diazepan-1-yl}thieno[2,3-b]pyridine-2-carboxamide], the melting point was 186 to 188 °C. Also, the activity at 0.03 µg/mL in data set [1] is more than 150%. As for `NC(=O)c1sc2nccc(N3CCCN(c4ccc(F)cc4)CC3)c2c1N` [Example 76, 3-amino-4-[4-(4-fluorophenyl)-1,4-diazepan-1-yl]thieno[2,3-b]pyridine-2-carboxamide], the melting point was in the range of 203 to 205 °C. Also, in data set [1], the activity at 0.03 µg/mL is more than 150%. The matching figures for `Cc1ccc(N2CCCN(c3ccnc4sc(C(N)=O)c(N)c34)CC2)cc1` [Example 77, 3-amino-4-[4-(4-methylphenyl)-1,4-diazepan-1-yl]thieno[2,3-b]pyridine-2-carboxamide]: 175 to 176 °C and more than 150%. As to `COc1ccccc1N1CCCN(c2ccnc3sc(C(N)=O)c(N)c23)CC1` [Example 67, 3-amino-4-[4-(2-methoxyphenyl)-1,4-diazepan-1-yl]thieno[2,3-b]pyridine-2-carboxamide], the melting point was 179 to 184 °C.

With `NC(=O)c1sc2nccc(N3CCN(c4ccccc4)CC3)c2c1N` [Example 42, 3-amino-4-(4-phenylpiperazin-1-yl)thieno[2,3-b]pyridine-2-carboxamide], the melting point was 250 to 252 °C. As to `NC(=O)c1sc2nccc(N3CCN(c4ccccc4Cl)CC3)c2c1N` [Example 54, 3-amino-4-[4-(2-chlorophenyl)piperazin-1-yl]thieno[2,3-b]pyridine-2-carboxamide], the melting point was 294 to 298 °C (dec.). Turning to `NC(=O)c1sc2nccc(N3CCCCC3)c2c1N` [Example 14, 3-amino-4-piperidin-1-ylthieno[2,3-b]pyridine-2-carboxamide], the melting point was 191 to 192 °C. The activity at 0.03 µg/mL in data set [1] is more than 150%. `NC(=O)c1sc2nccc(N3CCC(c4ccccc4)CC3)c2c1N` [Example 31, 3-amino-4-(4-phenylpiperidin-1-yl)thieno[2,3-b]pyridine-2-carboxamide] displayed a melting point of 226 to 233 °C. Molecule `NC(=O)c1sc2nccc(N3CCCC(CO)C3)c2c1N` (stereo not drawn) [Example 17, 3-amino-4-[3-(hydroxymethyl)piperidin-1-yl]thieno[2,3-b]pyridine-2-carboxamide] gave a melting point of 125 to 130 °C. Also, the activity at 0.03 µg/mL in data set [1] is more than 150%. For the molecule `NC(=O)c1sc2nccc(N3CCc4ccccc4C3)c2c1N` [Example 27, 3-amino-4-(3,4-dihydroisoquinoline-2(1H)-yl)thieno[2,3-b]pyridine-2-carboxamide], the melting point fell in the range of 244 to 245 °C.

The values above are taken from US20070219234A1, “Thienopyridine Derivatives” (priority 2004, published 2007).
